How the values were obtained:
Format in all cases: in vivo
[1] = tested on: barnyardgrass (Echinochloa crus-galli); assay: Test B flooded paddy test, visual plant response rating; conditions: 250 g ai/ha, Flood, applied to paddy water, 2-leaf stage, evaluated after 13 to 15 days
Summary of the method: (§1)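 Visual scores compare treated plants with controls after 13 to 15 days of greenhouse growth. Treatment was made into paddy water standing 3 cm above the soil, with plants at the 2-leaf stage and flooding maintained throughout.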

[2] = tested on: ducksalad (Heteranhera limosa); assay: as above; conditions: 250 g ai/ha, Flood, applied to paddy water, 2-leaf stage, evaluated after 13 to 15 days
Summary of the method: as §1

rice (Oryza sativa) = assay: as above; conditions: 250 g ai/ha, Flood, applied to paddy water, 2-leaf stage, evaluated after 13 to 15 days
Summary of the method: as §1

[3] = tested on: sedge, umbrella (small-flower umbrella sedge, Cyperus difformis); assay: as above; conditions: 250 g ai/ha, Flood, applied to paddy water, 2-leaf stage, evaluated after 13 to 15 days
Summary of the method: as §1

[4] = tested on: ragweed (common ragweed, Ambrosia elatior); assay: Test A postemergence, visual plant response rating; conditions: for Ragweed plant response rating: Postemergence, 125 g ai/ha, 0 to 100 scale (0 no effect, 100 complete control)
Summary of the method: (§2)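 Greenhouse evaluation, approx. 10 days post-spray. Soil: loam + sand. Postemergence stage: 1–2 leaves, height 2–10 cm. Vehicle: non-phytotoxic solvent blend with surfactant. Score: visual injury on a 0 (no effect) to 100 (complete control) scale.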

kochia (Kochia scoparia) [5] = assay: Test A postemergence, visual plant response rating; conditions: for Kochia plant response rating: Postemergence, 125 g ai/ha, 0 to 100 scale (0 no effect, 100 complete control)
Summary of the method: as §2

[6] = tested on: galium (catchweed bedstraw, Galium aparine); assay: Test A postemergence, visual plant response rating; conditions: for Galium plant response rating: Postemergence, 125 g ai/ha, 0 to 100 scale (0 no effect, 100 complete control)
Summary of the method: as §2

[7] = tested on: Italian ryegrass (Lolium multiflorum); assay: Test A postemergence, visual plant response rating; conditions: for Ryegrass, Italian plant response rating: Postemergence, 125 g ai/ha, 0 to 100 scale (0 no effect, 100 complete control)
Summary of the method: as §2

[8] = tested on: barnyardgrass (Echinochloa crus-galli); assay: Test A postemergence, visual plant response rating; conditions: for Barnyardgrass plant response rating: Postemergence, 125 g ai/ha, 0 to 100 scale (0 no effect, 100 complete control)
Summary of the method: as §2

[9] = tested on: blackgrass (Alopecurus myosuroides); assay: Test A postemergence, visual plant response rating; conditions: for Blackgrass plant response rating: Postemergence, 125 g ai/ha, 0 to 100 scale (0 no effect, 100 complete control)
Summary of the method: as §2

[10] = tested on: wheat (Triticum aestivum); assay: Test A postemergence, visual plant response rating; conditions: for Wheat plant response rating: Postemergence, 125 g ai/ha, 0 to 100 scale (0 no effect, 100 complete control)
Summary of the method: as §2

corn (Zea mays) = assay: Test A postemergence, visual plant response rating; conditions: for Corn plant response rating: Postemergence, 125 g ai/ha, 0 to 100 scale (0 no effect, 100 complete control)
Summary of the method: as §2

[11] = tested on: pigweed (Amaranthus retroflexus); assay: Test A postemergence, visual plant response rating; conditions: for Pigweed plant response rating: Postemergence, 125 g ai/ha, 0 to 100 scale (0 no effect, 100 complete control)
Summary of the method: as §2

[12] = tested on: foxtail, giant (giant foxtail, Setaria faberii); assay: Test A postemergence, visual plant response rating; conditions: for Foxtail, Giant plant response rating: Postemergence, 125 g ai/ha, 0 to 100 scale (0 no effect, 100 complete control)
Summary of the method: as §2

[13] = tested on: ragweed (common ragweed, Ambrosia elatior); assay: Test A preemergence, visual plant response rating; conditions: for Ragweed plant response rating: preemergence, 0 to 100 scale, 0 no effect, 100 complete control; for Ragweed plant response rating (0 to 100 scale): 500 g ai/ha Preemergence, approx. 10 days
Summary of the method: as §2

kochia (Kochia scoparia) [14] = assay: Test A preemergence, visual plant response rating; conditions: for Kochia plant response rating: preemergence, 0 to 100 scale, 0 no effect, 100 complete control; for Kochia plant response rating (0 to 100 scale): 500 g ai/ha Preemergence, approx. 10 days
Summary of the method: as §2

[15] = tested on: Italian ryegrass (Lolium multiflorum); assay: Test A preemergence, visual plant response rating; conditions: for Ryegrass, Italian plant response rating: preemergence, 0 to 100 scale, 0 no effect, 100 complete control; for Ryegrass, Italian plant response rating (0 to 100 scale): 500 g ai/ha Preemergence, approx. 10 days
Summary of the method: as §2

[16] = tested on: barnyardgrass (Echinochloa crus-galli); assay: Test A preemergence, visual plant response rating; conditions: for Barnyardgrass plant response rating: preemergence, 0 to 100 scale, 0 no effect, 100 complete control; for Barnyardgrass plant response rating (0 to 100 scale): 500 g ai/ha Preemergence, approx. 10 days
Summary of the method: as §2

[17] = tested on: pigweed (Amaranthus retroflexus); assay: Test A preemergence, visual plant response rating; conditions: for Pigweed plant response rating: preemergence, 0 to 100 scale, 0 no effect, 100 complete control; for Pigweed plant response rating (0 to 100 scale): 500 g ai/ha Preemergence, approx. 10 days
Summary of the method: as §2

[18] = tested on: foxtail, giant (giant foxtail, Setaria faberii); assay: Test A preemergence, visual plant response rating; conditions: for Foxtail, Giant plant response rating: preemergence, 0 to 100 scale, 0 no effect, 100 complete control; for Foxtail, Giant plant response rating (0 to 100 scale): 500 g ai/ha Preemergence, approx. 10 days
Summary of the method: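 Ratings 0–100 (100 = complete control), visual, vs untreated controls at ~10 days. Application pre- or postemergence; solvent mixture with surfactant; loam/sand medium.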

[19] = 500 g ai/ha, postemergence, 0 is no effect, 100 is complete control
[20] = 31 g ai/ha Postemergence, approx. 10 days

Row | SMILES | Plant response rating, Barnyardgrass (0 to 100 scale, 0 is no effect, 100 is complete control) [1] | Plant response rating, Ducksalad (0 to 100 scale, 0 is no effect, 100 is complete control) [2] | Plant response rating, Rice (0 to 100 scale, 0 is no effect, 100 is complete control) (rice (Oryza sativa)) | Plant response rating, Sedge, Umbrella (0 to 100 scale, 0 is no effect, 100 is complete control) [3] | Ragweed plant response rating [4] | Kochia plant response rating (kochia (Kochia scoparia) [5]) | Galium plant response rating [6] | Ryegrass, Italian plant response rating [7] | Barnyardgrass plant response rating [8] | Blackgrass plant response rating [9] | Wheat plant response rating [10] | Corn plant response rating (corn (Zea mays)) | Pigweed plant response rating [11] | Foxtail, Giant plant response rating [12] | Ragweed plant response rating ([13]; 125 g ai/ha) | Kochia plant response rating (kochia (Kochia scoparia) [14]; 125 g ai/ha) | Ryegrass, Italian plant response rating ([15]; 125 g ai/ha) | Barnyardgrass plant response rating ([16]; 125 g ai/ha) | Pigweed plant response rating ([17]; 125 g ai/ha) | Foxtail, Giant plant response rating ([18]; 125 g ai/ha) | further results
1 | C#CCON=C(c1c(O)c(C)nn(C)c1=O)c1cc(Br)cc2ccccc12 [Compound 116] | 55 | 60 | 5 | 30 | 100 | 60 | 100 | 90 | 90 | 100 | 50 | 30 | 90 | 90 | 90 | 10 | 100 | 100 | 100 | 90 | Ragweed plant response rating (0 to 100 scale) [4, 19]: 100; Kochia plant response rating (0 to 100 scale) (kochia (Kochia scoparia) [5]; [19]): 80; Galium plant response rating (0 to 100 scale) [6, 19]: 100; Ryegrass, Italian plant response rating (0 to 100 scale) [7, 19]: 100; Barnyardgrass plant response rating (0 to 100 scale) [8, 19]: 90; Blackgrass plant response rating (0 to 100 scale) [9, 19]: 100; Wheat plant response rating (0 to 100 scale) [10, 19]: 60; Corn plant response rating (0 to 100 scale) (corn (Zea mays); [19]): 80; Pigweed plant response rating (0 to 100 scale) [11, 19]: 100; Foxtail, Giant plant response rating (0 to 100 scale) [12, 19]: 90; Ragweed plant response rating (0 to 100 scale) [13]: 90; Kochia plant response rating (0 to 100 scale) (kochia (Kochia scoparia) [14]): 100; Ryegrass, Italian plant response rating (0 to 100 scale) [15]: 100; Barnyardgrass plant response rating (0 to 100 scale) [16]: 100; Pigweed plant response rating (0 to 100 scale) [17]: 100; Foxtail, Giant plant response rating (0 to 100 scale) [18]: 100
2 | CON=C(c1c(O)c(C)nn(C)c1=O)c1cccc2cc(F)ccc12 [Compound 119] | 0 | 0 | 0 | 0 | 90 | 70 | 80 | 80 | 70 | 80 | 0 | 10 | 80 | 70 | 90 | 30 | 30 | 50 | 80 | 80 | Ragweed plant response rating (0 to 100 scale) [4, 19]: 90; Kochia plant response rating (0 to 100 scale) (kochia (Kochia scoparia) [5]; [19]): 70; Galium plant response rating (0 to 100 scale) [6, 19]: 100; Ryegrass, Italian plant response rating (0 to 100 scale) [7, 19]: 90; Barnyardgrass plant response rating (0 to 100 scale) [8, 19]: 80; Blackgrass plant response rating (0 to 100 scale) [9, 19]: 90; Wheat plant response rating (0 to 100 scale) [10, 19]: 0; Corn plant response rating (0 to 100 scale) (corn (Zea mays); [19]): 40; Pigweed plant response rating (0 to 100 scale) [11, 19]: 90; Foxtail, Giant plant response rating (0 to 100 scale) [12, 19]: 80; Ragweed plant response rating (0 to 100 scale) [13]: 90; Kochia plant response rating (0 to 100 scale) (kochia (Kochia scoparia) [14]): 80; Ryegrass, Italian plant response rating (0 to 100 scale) [15]: 100; Barnyardgrass plant response rating (0 to 100 scale) [16]: 80; Pigweed plant response rating (0 to 100 scale) [17]: 100; Foxtail, Giant plant response rating (0 to 100 scale) [18]: 100
3 | CON=C(c1c(OC(C)=O)c(C)nn(C)c1=O)c1cccc2ccccc12 [Compound 120] | 0 | 0 | 0 | 0 | 20 | 30 | 80 | 30 | 20 | 20 | 0 | 0 | 50 | 40 | 10 | 10 | 10 | 10 | 100 | 50 | Ragweed plant response rating (0 to 100 scale) [4, 20]: 0; Kochia plant response rating (0 to 100 scale) (kochia (Kochia scoparia) [5]; [20]): 10; Galium plant response rating (0 to 100 scale) [6, 20]: 40; Ryegrass, Italian plant response rating (0 to 100 scale) [7, 20]: 0; Barnyardgrass plant response rating (0 to 100 scale) [8, 20]: 0; Blackgrass plant response rating (0 to 100 scale) [9, 20]: 0; Wheat plant response rating (0 to 100 scale) [10, 20]: 0; Corn plant response rating (0 to 100 scale) (corn (Zea mays); [20]): 0; Pigweed plant response rating (0 to 100 scale) [11, 20]: 30; Foxtail, Giant plant response rating (0 to 100 scale) [12, 20]: 0; Ragweed plant response rating ([13]; 31 g ai/ha): 0; Kochia plant response rating (kochia (Kochia scoparia) [14]; 31 g ai/ha): 0; Ryegrass, Italian plant response rating ([15]; 31 g ai/ha): 0; Barnyardgrass plant response rating ([16]; 31 g ai/ha): 0; Pigweed plant response rating ([17]; 31 g ai/ha): 60; Foxtail, Giant plant response rating ([18]; 31 g ai/ha): 20
4 | C=CCc1ccccc1C(=NOC)c1c(O)c(C)nn(C)c1=O [Compound 121] | 0 | 0 | 0 | 0 | 40 | 40 | 60 | 60 | 0 | 30 | 30 | 0 | 50 | 20 | 10 | 0 | 50 | 0 | 10 | 10 | Ragweed plant response rating (0 to 100 scale) [4, 19]: 70; Kochia plant response rating (0 to 100 scale) (kochia (Kochia scoparia) [5]; [19]): 60; Galium plant response rating (0 to 100 scale) [6, 19]: 90; Ryegrass, Italian plant response rating (0 to 100 scale) [7, 19]: 90; Barnyardgrass plant response rating (0 to 100 scale) [8, 19]: 70; Blackgrass plant response rating (0 to 100 scale) [9, 19]: 70; Wheat plant response rating (0 to 100 scale) [10, 19]: 40; Corn plant response rating (0 to 100 scale) (corn (Zea mays); [19]): 10; Pigweed plant response rating (0 to 100 scale) [11, 19]: 70; Foxtail, Giant plant response rating (0 to 100 scale) [12, 19]: 60; Ragweed plant response rating (0 to 100 scale) [13]: 50; Kochia plant response rating (0 to 100 scale) (kochia (Kochia scoparia) [14]): 30; Ryegrass, Italian plant response rating (0 to 100 scale) [15]: 100; Barnyardgrass plant response rating (0 to 100 scale) [16]: 20; Pigweed plant response rating (0 to 100 scale) [17]: 90; Foxtail, Giant plant response rating (0 to 100 scale) [18]: 80
